# Test system: Peritoneal macrophage
# Assay: cells
# Details: Mus musculus, Swiss, 120 h, read-out: pIC50 (converted)
row,Structure (SMILES),IC50 [µM]
1,COc1ccc(C(=O)N2CCOCC2)cc1S(=O)(=O)N(Cc1ccccc1)CC(C)(C)C,> 64.6
2,COc1ccc(C(N)=O)cc1S(=O)(=O)N(Cc1ccccc1)Cc1ccccc1,> 64.6
3,N#Cc1ccccc1S(=O)(=O)N(Cc1ccccc1)Cc1ccccc1,> 64.6
4,COc1ccc(C(=O)N2CCOCC2)cc1S(=O)(=O)N(Cc1ccc(F)cc1)CC(C)C,> 64.6
5,COc1ccc(C(=O)NC2COC2)cc1S(=O)(=O)N(Cc1ccc(F)cc1)Cc1ccc(F)cc1,> 64.6
6,COc1ccc(C(=O)N2CCOCC2)cc1S(=O)(=O)N(Cc1ccc(F)cc1)Cc1ccc(C(F)(F)F)nc1,> 64.6
7,COc1ccc(S(C)(=O)=O)cc1S(=O)(=O)N(Cc1ccc(F)cc1)Cc1ccc(F)cc1,> 64.6
8,COc1ccc([S+](C)[O-])cc1S(=O)(=O)N(Cc1ccccc1)Cc1ccccc1 (stereo not drawn),> 64.6
9,COc1ccc(CN2CCOCC2)cc1S(=O)(=O)N(Cc1ccc(F)cc1)Cc1ccc(F)cc1,> 64.6
10,COc1ccc(OC)c(S(=O)(=O)N(Cc2ccc(F)cc2)Cc2nc(C)no2)c1,> 64.6
11,COCCN(Cc1ccc(F)cc1)S(=O)(=O)c1cc(C#N)ccc1OC,> 64.6
12,Cn1cccc(S(=O)(=O)N(Cc2ccc(F)cc2)Cc2ccc(F)cc2)c1=O,64.6
13,CS(=O)(=O)c1ccccc1S(=O)(=O)N(Cc1ccccc1)Cc1ccccc1,> 64.6
14,COc1ccc(C#N)cc1S(=O)(=O)N(Cc1ccc(C(F)(F)F)nc1)Cc1ccc(C(F)(F)F)nc1,> 64.6
15,COc1ccc(OC)c(S(=O)(=O)N(Cc2ccccc2)Cc2ccccc2)c1,> 64.6
16,COc1ccc(C(=O)O)cc1S(=O)(=O)N(Cc1ccccc1)Cc1ccccc1,> 64.6

row,Structure (SMILES),IC50 [µM]
1,COc1ccc(C(=O)N2CCOCC2)cc1S(=O)(=O)N(Cc1ccccc1)Cc1cnc(C(F)(F)F)nc1,> 64.6
2,COc1ccc(C#N)cc1S(=O)(=O)N(Cc1ccccc1)Cc1ccccc1,> 64.6
3,COc1ccc(N2CCOCC2)cc1S(=O)(=O)N(Cc1ccc(F)cc1)Cc1ccc(F)cc1,> 64.6
4,O=S(=O)(c1cc(F)ccc1F)N(Cc1ccc(F)cc1)Cc1ccc(F)cc1,> 64.6
5,COc1ccc(S(N)(=O)=O)cc1S(=O)(=O)N(Cc1ccccc1)Cc1ccccc1,> 64.6
6,COc1ccc(OC)c(S(=O)(=O)N(Cc2ccc(F)cc2)Cc2cnc(OC)nc2OC)c1,> 64.6
7,COc1ccc(C#N)cc1S(=O)(=O)N(Cc1ccccc1)Cc1cnc(C(F)(F)F)nc1,> 64.6
8,COc1ccccc1S(=O)(=O)N(Cc1ccccc1)Cc1ccccc1,> 64.6
9,COc1ncccc1S(=O)(=O)N(Cc1ccccc1)Cc1ccccc1,64.6
10,COc1ccc(C(=O)N2CCOCC2)cc1S(=O)(=O)N(Cc1ccc(C(F)(F)F)nc1)CC(C)(C)C,> 64.6
11,COc1ccc(C#N)cc1S(=O)(=O)N(Cc1ccc(F)cc1)C1CCOCC1,> 64.6
12,COCCOCN1CNc2cc(OC)c(S(=O)(=O)N(Cc3ccccc3)Cc3ccccc3)cc2S1(=O)=O,> 64.6
13,COc1ccc(OC)c(S(=O)(=O)N(Cc2ccc(F)cc2)c2ccc(F)cc2)c1,> 64.6
14,COCCN(Cc1ccc(F)cc1)S(=O)(=O)c1cc(C(=O)N2CCOCC2)ccc1OC,> 64.6
15,COc1ccc(S(=O)(=O)N(Cc2ccccc2)Cc2ccccc2)cc1,> 64.6

# Test system: not listed separately
# Assay: in vitro
# Details: mouse, plasma
row,remaining at 6 h [%],Structure (SMILES)
1,22,COc1ccc(C(=O)N2CCOCC2)cc1S(=O)(=O)N(Cc1ccc(F)cc1)Cc1ccc(C(F)(F)F)nc1
2,42,COc1ccc(C(=O)N2CCOCC2)cc1S(=O)(=O)N(Cc1ccccc1)Cc1cnc(C(F)(F)F)nc1

# From ChEMBL document CHEMBL4673183, “Hit-to-lead optimization of a benzene sulfonamide series for potential antileishmanial agents” (RSC Med Chem, 2020)
